These results are taken from publication PMC10000267, “ALA‐A2 Is a Novel Anticancer Peptide Inspired by Alpha‐Lactalbumin: A Discovery from a Computational Peptide Library, In Silico Anticancer Peptide Screening and In Vitro Experimental Validation” (Global Challenges, 2023).

Each structure is given as a SMILES string. Residues, ends and D or L forms follow the SMILES beside them.

As usually defined, the IC50 is the point on the concentration scale where inhibition reaches its midpoint.

Common to all, as to test: In vitro cancer cytotoxicity (MTT assay)
Common to all, as to assay type: cell-based, human
(Tetrazolium dyes change colour on reduction, which living cells bring about.)

One experiment concerns K562 leukemia cells. As to conditions: K562, peptide 200 µM, 24 h. How it is done:
(§1) All cell lines were obtained from the American Type Culture Collection (ATCC, Manassas, VA, USA). The A549 lung adenocarcinoma (ATCC CCL‐185TM), MDA‐MB‐231 triple‐negative breast adenocarcinoma (ATCC HTB‐26TM), and SH‐SY5Y neuroblastoma (ATCC CRL‐2266TM) cell lines were cultured in Dulbecco's Modified Eagle's Medium (DMEM)‐high glucose (Gibco, Thermo Fisher Scientific, MA, USA). HT29 colon adenocarcinoma (ATCC HTB‐38) cell lines were maintained in DMEM/Nutrient Mixture F‐12 (Gibco). K562 chronic myeloid leukemia (ATCC CRL‐3344) were grown in Roswell Park Memorial Institute Medium 1640 (Gibco). The cells were cultured in medium supplemented with 10% fetal bovine serum (Gibco) and 1× penicillin/streptomycin (Gibco) and incubated in a 5% CO2 incubator with saturated humidity.
(§2) The protocol previously described by Chiangjong et al. and Baindara et al.^[ [5], [29] ^] was modified for use in determining the cytotoxicity of peptides on the various cancer types. Adherent cells were seeded at 1 × 10^4 cells/well into a 96‐well plate 24 h prior to replacing the media containing the peptide of interest. Suspended cells were seeded at 1 × 10^4 cells/well in the media containing the peptide of interest. Five human cell lines, including lung cancer (A549), colon cancer (HT29), breast cancer (MDA‐MB‐231), neuroblastoma (SH‐SY5Y), and leukemia (K562) cells, were treated with the culture media containing the peptides at 200 µM for 24 h. Cell viability was then determined using Cell Proliferation Kit I, MTT (Roche Diagnostics GmbH, Mannheim, Germany): MTT labeling reagent (10 µL) was added to each well and incubated at 37 °C in a 5% CO2 atmosphere for 4 h. After incubation, 100 µL solubilizing solution was added to each well and incubated at 37 °C in 5% CO2 overnight. The absorbance at 570 nm (A 570) was measured for each well. The percentage of cell viability was calculated as: (1) % Cell Viability=[A570 of treated cells − A570 of media/A570 of untreated cells−A570 of media] × 100

For experiment [1], the system named is SH‐SY5Y neuroblastoma cells. The settings on record: peptide 200 µM, 24 h. How it is done:
as §1, §2

For experiment [2], the system named is MDA‐MB‐231 breast cancer cells. The settings on record: MDA‐MB‐231, peptide 200 µM, 24 h. As for the experimental part: as §1, §2
The subject of experiment [3] is HT29 colon adenocarcinoma cells. The settings on record: 24 h. As for the experimental part:
as §1, §2
(§3) To evaluate dose‐dependency, ≈1 × 10^4 cells/well were cultured in media containing ALA‐A2 at 0, 6.25, 12.5, 25, 50, 100, 200, and 400 µM in a 96‐well plate for 24 h. Cell viability was determined by the MTT assay, as above.

Experiment [4] concerns A549 lung adenocarcinoma cells. The settings on record: 24 h. How it is done: as §1, §2, §3

On to `CC(C)C[C@H](NC(=O)[C@@H](N)CCCCN)C(=O)N[C@@H](Cc1c[nH]c2ccccc12)C(=O)N[C@@H](CS)C(=O)N[C@@H](CCCCN)C(=O)N[C@@H](CO)C(=O)N[C@@H](CO)C(=O)N[C@@H](CCC(N)=O)C(=O)N[C@H](C(=O)N1CCC[C@H]1C(=O)N[C@@H](CCC(N)=O)C(=O)N[C@@H](CO)C(=O)N[C@@H](CCCNC(=N)N)C(=O)O)C(C)C` [ALA‐A2] (H-KLWCKSSQVPQSR-OH), for which the “anticancer effect (in words)” value (with K562 leukemia cells; in experiment [1]; in experiment [2]) was “did not affect” each time. Also, the cell viability was found to be 55.3 ± 2.7 % cell viability in experiment [3] (HT29, peptide 200 µM, 37 °C, A570, mean ± SD, three biological replicates) and 59.7 ± 1.1 % cell viability in experiment [4] (A549, peptide 200 µM, 37 °C, A570, mean ± SD, three biological replicates). Besides, the IC50 in experiment [3] (HT29, twofold serial dilutions 0 to 400 µM, extrapolated beyond the tested range) is greater than 1000 µM; in experiment [4] (A549, twofold serial dilutions 0 to 400 µM) it was roughly 300 µM.
